One assay has as its system anaesthetised dog. The assay is described as follows: Haemodynamic study in the anaesthetised dog (vascular resistances), i.v. Type of assay: in vivo. On the procedure:
A complete haemodynamic study was carried out on mongrel dogs weighing from 25 to 30 kg, which were anaesthetised with sodium pentobarbital 30 mg/kg i.v., intubated and ventilated and subjected to a thoracotomy at the 5th left intercostal space. The measurement of the […] is carried out using electromagnetic rings positioned at the level of the ascending aorta and the circumflex branch of the left coronary artery, respectively, and connected to GOULD SP 2202 electromagnetic flow meters. The aortic pressure is measured by a MILLAR probe introduced via the femoral artery.
The total peripheral vascular resistance values (TPR) and the mean coronary vascular resistance values (CVRM) are calculated by the ratio between the mean aortic pressure and the mean cardiac output and the mean coronary output, respectively. The products tested were injected via the femoral vein in a form dissolved in water or a suitable solvent.
The evolution of the vascular resistances, expressed as percentage variation with respect to the control values, is presented as a function of time in the following Table.

The subject of assay [1] is aorta of the rat. In words: Relaxation of rat aortic rings contracted by potassium depolarisation (KCl). The settings on record: rat aorta rings without endothelium. Type of assay: cell-based. On the procedure:
(§1) Male Wistar rats (325-375 g) are anaesthetised i.p. using sodium pentobarbital (30 mg/kg). The thoracic aorta and the mesenteric portal vein are removed. The aorta is dissected into rings 3 mm long and the endothelium is removed mechanically.
(§2) The organs are placed in a 20 ml thermostatically controlled vessel containing a physiological solution composed of (mM): NaCl 112; KCl 5; KH2 PO4 1; MgSO4 1.2; CaCl2 2.5; NaHCO3 25; glucose 11.5; EDTA 0.1; pH: 7.4; 37° C.; 95% O2 +5% CO2.
(§3) The initial force applied is 2 g in the case of the aorta and 0.5 g in the case of the portal vein. The variations in force are measured by a STATHAM sensor connected to a transducer amplifier (GOULD) and are monitored continuously on a GOULD 2400 graphic recorder.
(§4) The experimental protocols are as follows: After a stabilisation period of 90 minutes, the aortic rings are subjected to various tests:
potassium depolarisation:
The preparations are exposed to a 30 mM or 80 mM KCl (and 87 and 37 mM NaCl, respectively) hyperpotassium medium; after 30 minutes' stabilisation of contraction, cumulative concentrations of the product to be tested are added every 15 minutes. The relaxation values obtained allow the IC50 s to be calculated.
(§5) The products are used in a form dissolved in water or a suitable solvent.
(§6) The concentrations expressed refer to the final concentrations in terms of base in the isolated organ baths.

Assay [2] concerns aorta of the rat. In words: Reactivity of rat aortic rings to 4-aminopyridine (4 AP). Type of assay: cell-based. The settings on record: product 10^-5 M, 4 AP 5 mM; listed as Ex. 1 Form A. The procedure:
as §1, §2, §3, §4
reactivity to 4-aminopyridine (4 AP)
The product to be tested, at a given concentration, or its solvent, is incubated in the normal physiological solution 15 minutes before the addition of the 4 AP (5 mM).
The maximum amplitudes of the responses to the 4 AP in the presence of the product or the solvent are compared.
as §5, §6

In assay [3] the test system is conscious renally hypertensive dog. The assay is described as follows: Arterial pressure in the conscious renally hypertensive dog. As to conditions: gastric intubation, 0.1 mg/kg. Type of assay: in vivo. On the procedure:
Mongrel dogs weighing from 20 to 25 kg are used. A silastic catheter positioned under anaesthesia (sodium pentobarbital 30 mg/kg i.v.) at the level of the abdominal aorta and left over a prolonged period permits the later measurement of the arterial pressure in the conscious animals. Arterial hypertension is induced by a second intervention under anaesthesia consisting in a constriction of the left renal artery using a clip, which reduces its rate of flow by approximately 70%, the left kidney is enveloped in a latex capsule and the contralateral kidney is left in place.
The systolic and diastolic arterial pressures (PAS and PAD) are measured using a STATHAM P23 pressure sensor connected to the silastic catheter and linked to a GOULD pressure amplifier. The products are tested on the animals, which have become hypertensive, in the conscious state, at least one week after the second intervention. The arterial pressure is monitored continuously on an ES1000 GOULD recorder until 7 hours have elapsed after the treatment and then until 24 hours have elapsed.
The products to be tested are administered via the digestive system, after gastric intubation, in a form dissolved in water or a suitable solvent. The doses administered are expressed in mg of base with respect to body weight.
The representative products of the invention were compared with the reference product (CROMAKALIM). The variations in the systolic and diastolic arterial pressures (PAS and PAD), presented at the most significant times after treatment, are expressed as percentage variation with respect to the control values.

Assay [4] concerns spontaneously hypertensive rat (SHR). The assay is described as follows: Arterial pressure in the conscious spontaneously hypertensive rat (SHR), oral. Type of assay: in vivo. On the procedure: The study is carried out on SHR male rats (Charles River) weighing from 260 g to 330 g and aged from 18 to 20 weeks. A polyethylene catheter is positioned at the level of the abdominal aorta and tunnelised at the level of the neck under anaesthesia (ketamine hydrochloride 150 mg/kg intraperitoneally). The animals, placed in movement-restraining cages, are tested in the conscious state at least 48 hours after intervention. The arterial pressure, measured by a STATHAM P23 pressure sensor connected to the abdominal catheter, is registered on a GOULD 2400 recorder. […] The doses administered are expressed in mg/kg of base.
The results obtained with a certain number of representative products of the invention and a reference product, CROMAKALIM, are grouped in the following Table. The variations in systolic and diastolic arterial pressure (PAS and PAD) presented at the most significant times after treatment are expressed as percentage variation with respect to the control values.

[5] abbreviates: Rattus norvegicus, 80 mM KCl, read-out: IC50 (M) KCl 80 mM.

Read-outs that look alike come from different tables or passages of the source. A value given as a limit tells only on which side of the number the result lay.

Regarding `CN(C)C[C@@H]1CCC(=O)N1C1c2cc(C#N)ccc2OC(C)(C)C1O` (single isomer, unassigned) [Example 3 form A, 3R,4S- or 3S,4R-trans-2,2-dimethyl-3-hydroxy-4-(2-oxo-5S-dimethylaminomethyl-1-pyrrolidinyl)-6-cyanochroman], the “Variation (%) of CVRM after treatment” value in the assay on anaesthetised dog (3000 μg/kg, 1 min) was “+2.5%”; in the assay with anaesthetised dog (3000 μg/kg, 10 min), -38.5%; with anaesthetised dog (3000 μg/kg, 30 min), -49.0%. Besides, the “Variation (%) of TPR after treatment” value in the assay with anaesthetised dog (3000 μg/kg, 1 min) is “+1.7%”; in the assay on anaesthetised dog (3000 μg/kg, 10 min) it was -6.8%; in the assay with anaesthetised dog (3000 μg/kg, 30 min) it was -8.5%.
Take `CC1(C)Oc2ccc(C#N)cc2C(N2C(=O)CC[C@H]2CO)C1O` (single isomer, unassigned) [Example 1 form A, 3R,4S- or 3S,4R-trans-2,2-dimethyl-3-hydroxy-4-(2-oxo-5S-hydroxymethyl-1-pyrrolidinyl)-6-cyanochroman]: the IC50 (in general, the concentration that gives 50% inhibition) was greater than 0.0001 M with aorta of the rat [1] (setting [5]) and 7.7e-06 M in the assay with aorta of the rat [1] (30 mM KCl, listed as Ex. 1 Form A, read-out: IC50 (M) KCl 30 mM). In addition, the “Variation (%) of CVRM after treatment” value in the assay with anaesthetised dog (300 μg/kg, 1 min) is -81.5%; with anaesthetised dog (300 μg/kg, 10 min), -50.3%; in the assay on anaesthetised dog (300 μg/kg, 30 min) it was -34.9%. Also, the “Variation (%) of TPR after treatment” value in the assay on anaesthetised dog (300 μg/kg, 1 min) is given as -41.9%; with anaesthetised dog (300 μg/kg, 10 min), -17.2%; in the assay with anaesthetised dog (300 μg/kg, 30 min) it was -12.9%. Besides, in the assay on aorta of the rat [2], the “% inhibition of the response to 4AP” value was 35%.
In the case of `COC[C@@H]1CCC(=O)N1C1c2cc(C#N)ccc2OC(C)(C)C1O` (single isomer, unassigned) [Example 2 form A, 3S,4R- or 3R,4S-trans-2,2-dimethyl-3-hydroxy-4-(2-oxo-5S-methoxymethyl-1-pyrrolidinyl)-6-cyanochroman], the “Variation (%) of PAD after treatment” value is -20% in assay [3] (1 H); -32% in assay [3] (3 H); -44% in assay [3] (7 H); 0% in assay [3] (24 H); -14% in assay [3] (30 min); -21 ± 4% in assay [4] (1.0 mg/kg, 1 H). Also, the “Variation (%) of PAD after treatment” value in assay [4] (1.0 mg/kg, 3 H) was -19 ± 3%; in assay [4] (1.0 mg/kg, 6 H), -14 ± 2%; in assay [4] (1.0 mg/kg, 30 min) it was -17 ± 3%; in assay [4] (3.0 mg/kg, 1 H), -36 ± 3%; in assay [4] (3.0 mg/kg, 3 H) it was -31 ± 3%; in assay [4] (3.0 mg/kg, 6 H), -27 ± 3%. Further, the “Variation (%) of PAD after treatment” value in assay [4] (3.0 mg/kg, 30 min) is on record as -35 ± 3%. Also, the “Variation (%) of PAS after treatment” value in assay [3] (1 H) was -12%; in assay [3] (3 H), -28%; in assay [3] (7 H) it was -41%; in assay [3] (24 H), -2%; in assay [3] (30 min) it was -2%; in assay [4] (1.0 mg/kg, 1 H), -16 ± 3%. In addition, the “Variation (%) of PAS after treatment” value in assay [4] (1.0 mg/kg, 3 H) was -12 ± 3%; in assay [4] (1.0 mg/kg, 6 H), -9 ± 2%; in assay [4] (1.0 mg/kg, 30 min), -11 ± 2%; in assay [4] (3.0 mg/kg, 1 H), -26 ± 2%; in assay [4] (3.0 mg/kg, 3 H), -25 ± 3%; in assay [4] (3.0 mg/kg, 6 H), -21 ± 3%. In addition, the “Variation (%) of PAS after treatment” value in assay [4] (3.0 mg/kg, 30 min) was -24 ± 1%. Besides, the IC50 with aorta of the rat [1] (Rattus norvegicus, 30 mM KCl, read-out: IC50 (M) KCl 30 mM) was 2.8e-07 M; with aorta of the rat [1] (setting [5]), greater than 0.0001 M. The “Variation (%) of CVRM after treatment” value was -28.9% in the assay with anaesthetised dog (30 μg/kg, 1 min); -20.2% in the assay on anaesthetised dog (30 μg/kg, 10 min); -22.1% in the assay on anaesthetised dog (30 μg/kg, 30 min); -54.7% in the assay with anaesthetised dog (100 μg/kg, 1 min); -56.1% in the assay with anaesthetised dog (100 μg/kg, 10 min); -50.5% in the assay with anaesthetised dog (100 μg/kg, 30 min). For the same compound, the “Variation (%) of TPR after treatment” value was -9.8% in the assay on anaesthetised dog (30 μg/kg, 1 min); -11.8% in the assay on anaesthetised dog (30 μg/kg, 10 min); -11.8% in the assay on anaesthetised dog (30 μg/kg, 30 min); -15.8% in the assay on anaesthetised dog (100 μg/kg, 1 min); -14.7% in the assay on anaesthetised dog (100 μg/kg, 10 min); -12.6% with anaesthetised dog (100 μg/kg, 30 min).

The values above are taken from US4999372A, “New aminochromanol compounds” (ADIR et Compagnie, priority 1988, dated 1991).
